Data on two compounds can be found in patent US20160220557A1, “USE OF ACETYL-COA CARBOXYLASE INHIBITORS FOR TREATING ACNE VULGARIS” (PFIZER INC., priority 2013, published 2016).

Data set [1] has as its target T1, recombinant human ACC1 (rhACC1) (Homo sapiens, UniProt Q13085, DEL44-44).
T1 construct: His6 (N); made in house; host or cells: SF9 insect cells (baculovirus)
The data set can be described thus: Transcreener ADP detection FP assay, recombinant human ACC1 inhibition. The class given is biochemical. The note with it: recombinant human ACC1, 50 μM ATP; read-out: Transcreener Assay hACC1 IC50.

Another data set deals with T2, CYP2C8 (Homo sapiens, UniProt P10632).
T2 construct: from tissue; host or cells: liver microsomes
T2 sequence (P10632 1-490): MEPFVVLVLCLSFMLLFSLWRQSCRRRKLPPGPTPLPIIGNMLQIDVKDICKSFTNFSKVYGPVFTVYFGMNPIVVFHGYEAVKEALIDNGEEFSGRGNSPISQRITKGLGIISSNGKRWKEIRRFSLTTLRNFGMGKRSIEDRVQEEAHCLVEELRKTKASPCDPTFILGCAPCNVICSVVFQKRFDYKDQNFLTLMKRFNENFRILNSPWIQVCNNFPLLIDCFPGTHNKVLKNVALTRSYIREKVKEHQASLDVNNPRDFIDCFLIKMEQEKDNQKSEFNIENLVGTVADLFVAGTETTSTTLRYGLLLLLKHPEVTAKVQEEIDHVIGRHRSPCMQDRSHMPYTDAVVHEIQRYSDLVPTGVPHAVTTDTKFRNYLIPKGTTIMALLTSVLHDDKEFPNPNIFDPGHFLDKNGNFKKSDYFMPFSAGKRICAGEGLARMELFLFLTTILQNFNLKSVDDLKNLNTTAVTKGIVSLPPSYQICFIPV
The experiment in a line: P450 inhibition in liver microsomes with probe substrates. It is filed as in vitro ADME.

Another data set has as its target T3, CYP2C9 (Homo sapiens, UniProt P11712).
T3 construct: from tissue; host or cells: liver microsomes
The description is as above. It is filed as in vitro ADME.

For the next data set, the target named is T4, CYP2C19 (Homo sapiens, UniProt P33261).
T4 construct: from tissue; host or cells: liver microsomes
T4 sequence (P33261 whole entry): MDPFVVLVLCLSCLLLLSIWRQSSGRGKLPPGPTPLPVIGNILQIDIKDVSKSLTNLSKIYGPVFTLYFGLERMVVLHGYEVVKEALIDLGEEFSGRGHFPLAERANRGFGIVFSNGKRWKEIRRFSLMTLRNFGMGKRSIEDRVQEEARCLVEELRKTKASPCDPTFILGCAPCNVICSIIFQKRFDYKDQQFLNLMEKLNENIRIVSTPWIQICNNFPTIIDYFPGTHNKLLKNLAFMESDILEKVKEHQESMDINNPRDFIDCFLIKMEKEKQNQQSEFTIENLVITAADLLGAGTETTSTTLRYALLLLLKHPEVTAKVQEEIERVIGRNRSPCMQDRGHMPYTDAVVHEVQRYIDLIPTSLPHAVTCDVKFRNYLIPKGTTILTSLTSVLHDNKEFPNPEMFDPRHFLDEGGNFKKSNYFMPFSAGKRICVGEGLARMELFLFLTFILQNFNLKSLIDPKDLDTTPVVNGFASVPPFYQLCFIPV
Described as above. The class given is in vitro ADME.

The target in a further data set is T5, CYP2D6 (Homo sapiens, UniProt P10635).
T5 construct: from tissue; host or cells: liver microsomes
T5 sequence (P10635 whole entry): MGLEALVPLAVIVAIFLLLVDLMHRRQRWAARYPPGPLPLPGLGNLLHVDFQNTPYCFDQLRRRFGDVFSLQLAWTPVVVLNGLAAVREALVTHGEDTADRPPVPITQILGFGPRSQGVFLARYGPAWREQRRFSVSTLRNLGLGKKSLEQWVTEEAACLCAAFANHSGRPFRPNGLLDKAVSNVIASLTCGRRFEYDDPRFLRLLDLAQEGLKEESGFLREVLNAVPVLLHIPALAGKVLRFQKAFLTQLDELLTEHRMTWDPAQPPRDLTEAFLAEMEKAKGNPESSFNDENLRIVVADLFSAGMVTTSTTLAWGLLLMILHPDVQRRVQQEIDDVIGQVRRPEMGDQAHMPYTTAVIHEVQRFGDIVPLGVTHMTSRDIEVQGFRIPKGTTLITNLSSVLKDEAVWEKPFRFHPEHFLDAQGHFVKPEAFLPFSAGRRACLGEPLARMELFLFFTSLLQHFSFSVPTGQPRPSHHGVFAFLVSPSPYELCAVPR
Described as above. It is filed as in vitro ADME.

In data set [2] the test system is de novo lipogenesis (DNL). The data set can be described thus: Suppression of DNL in healthy human volunteers. The settings on record: dose-dependent. It is filed as in vivo.
The nature of the next data set: clinical. The note with it: human, in vivo, po.
Data set [3] is described as follows: Human studies: safety, tolerability and pharmacokinetics after oral dosing. The settings on record: for median Tmax: oral.
A further data set deals with ear skin malonyl-CoA. The data set can be described thus: Ear skin malonyl-CoA levels in Syrian hamsters. It is filed as in vivo, Syrian hamster. The settings on record: topical 100 mg/ml (5 ul/ear), single dose, one hour after treatment. The procedure:
Male Syrian gold Hamster at ˜10 weeks were maintained adlibitum on standard hamster chow and water. Example 3 for topical delivery was prepared as a solution in a vehicle consisting of 70:30 (Ethanol:propylene glycol) at a concentration of 100 mg/ml. Topical administration of a single dose (5 ul/ear) was applied to hamster ears with a pipette (2-10 ul) tip adhering to 2 minute intervals following the dosing order. The dosing timing allowed for the formulation to spread evenly over an approximate 1 sq cm area and absorb/dry prior to returning the animal to the cage. […] One hour after dose administration animals were sacrificed by CO2 asphyxiation.
Briefly, ear skin samples were prepared for malonyl-CoA analysis in the following manner. One 8 mm distal biopsy punch (using a 8 mm diameter Sklar Tru-punch—Sklar Instruments) (2 per animal) was taken just above the anatomical “V” in the aural cartilage to normalize sample area. The punch was then split into 2 layers (anterior and posterior). […]
Frozen tissues were homogenized in 1 mL of 5% ice cold trichloroacetic acid using a polytron in a 2 mL polypropylene centrifuge tube. […] Tissue malonyl-CoA levels were determined by LCMS by the Metabolomics Laboratory Sanford-Burnham Medical Research Institute (Orlando, […]). Hamster ear skin malonyl-CoA levels were expressed as the percent of the vehicle control and are plotted in FIG. 6.

The IC50 is the concentration that inhibits the measured activity by half. The term half-life denotes the time in which the quantity being followed falls by half. Read a low half-life as rapid decline.

T3 sequence (P11712 whole entry): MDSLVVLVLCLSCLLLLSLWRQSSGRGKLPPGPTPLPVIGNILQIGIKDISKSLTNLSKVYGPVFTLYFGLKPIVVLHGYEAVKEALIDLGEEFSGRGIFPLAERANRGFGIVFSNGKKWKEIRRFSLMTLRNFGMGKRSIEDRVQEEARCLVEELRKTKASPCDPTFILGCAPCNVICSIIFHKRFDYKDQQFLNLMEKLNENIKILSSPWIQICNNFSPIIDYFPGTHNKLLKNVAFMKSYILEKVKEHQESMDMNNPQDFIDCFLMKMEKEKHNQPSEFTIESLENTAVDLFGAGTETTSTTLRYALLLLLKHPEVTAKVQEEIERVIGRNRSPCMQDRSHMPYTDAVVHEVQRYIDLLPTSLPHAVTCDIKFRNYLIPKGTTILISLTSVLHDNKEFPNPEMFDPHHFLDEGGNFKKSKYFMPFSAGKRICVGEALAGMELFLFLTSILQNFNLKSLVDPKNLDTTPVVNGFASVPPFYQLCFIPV

Take `Cc1nc2ccc(C(=O)N3CCC4(CC3)CC(=O)c3c(cnn3C(C)C)C4)cc2[nH]1` [Example 1, 1-isopropyl-1′-(2-methyl-1H-benzo[d]imidazole-5-carbonyl)-4,6-dihydrospiro[indazole-5,4′-piperidin]-7(1H)-one]: the IC50 in [1] is 0.098 µM; against CYP2C8, > 30 µM; against CYP2C9, > 30 µM; against CYP2C19, > 30 µM; against CYP2D6 it was > 30 µM. The “suppression of DNL in healthy human volunteers” value in data set [2] is recorded as “up to 80%”. The half-life in the data set “clinical” lay in the range of 10 to 13 h. The “median Tmax” value in data set [3] (fasted state) fell in the range of 1 to 2 h; in data set [3] (fed state), 3 to 4 h. For the same compound, the maximum tolerated dose entry in data set [3] (single doses up to 800 mg, repeated doses up to 400 mg/day) is “not established”.

Regarding `CC(C)n1ncc2c1C(=O)CC1(CCN(C(=O)c3ccc4ccc(N)nc4c3)CC1)C2` [Example 3, 1′-(2-aminoquinoline-7-carbonyl)-1-isopropyl-4,6-dihydrospiro[indazole-5,4′-piperidin]-7(1H)-one], the “suppression of hamster ear skin malonyl-CoA relative to vehicle” value in the data set with ear skin malonyl-CoA is 87%.
